From patent publication US9233961B2, “Compounds and compositions for the treatment of parasitic diseases” (Novartis AG, priority 2013, dated 2016)
Where two headings read alike, the source gives them in different places.

Legend:
[1] = system: L. donovani HU3 strain in mouse peritoneal macrophages; assay: Assay for proliferation of Leishmania parasites in mouse peritoneal macrophages; format: cell-based, Leishmania donovani; conditions: Leishmania donovani, Peritoneal macrophage
Text: Assay for Proliferation of Leishmania Parasites
The activity of a compound according to the present invention for inhibition of parasitemai can be assessed by the parasite proliferation assay. The assay measures the increase in the parasite number in the assayed plate well using a DNA intercalating dye, SYBR Green I® dye (INVITROGEN) to stain Leishmania cell nuclei. It is understood that the assays illustrate the invention without in any way limiting the scope of the invention.
L. donovani HU3 strain is propagated by infecting BALB/c mice through tail vein injection with 10^7 Leishmania parasites. Infected mice are allowed to develop infection during 9-11 weeks post-infection. During this time, the parasites accumulate in the infected mouse spleens to large numbers, and the infected mice serve as the source of parasites for the in vitro measurement of compound efficacies. To assay a compound for anti-leishmanial activity, peritoneal macrophages isolated from non-infected BALB/c mice are seeded into 384-well plates at density 2×10^4 macrophages per well in […] of medium (RPMI 1640, 10% […], 10 mM HEPES, 1 mM sodium pyruvate, 1% Pen/Strep). Subsequently, the seeded plates are placed into an incubator set to maintain 37° C. temperature and atmosphere with 5% CO2. The next day, Leishmania parasites are isolated from the spleens of mice infected for 9-11 weeks and 4×10^5 isolated parasites in […] of the above media are added to each plate well. Plates are then returned into incubators and infection is allowed to proceed for 24 hours. After the infection of macrophages is completed, […] of compounds of the invention in the above medium, which also contains 5% DMSO, are added to plate wells containing infected macrophages. At the same time control compounds (miltefosine and amphotericin B) and DMSO are added to plates to serve as the positive and negative controls, respectively. After the compound addition, the plates are returned into incubator and cells infected with parasites are cultured for 5 days. At the end of cultivation, […] of 8% paraformaldehyde is added to plate wells and incubated for 15 min at room temperature. Following the incubation, the paraformaldehyde from plate wells is aspirated, and […] of PBS containing 0.2% Triton X-100 is added to wells. After 15 min incubation, the solution is aspirated from wells again, and replaced with SybrGreen Dye solution in PBS (1:125,000 dilution). Infected cells are imaged with Evotec Opera high-content microscope, and the number of parasites in well is determined by counting parasite nuclei visualized by staining with SybrGreen dye. The percentage inhibition of 50%, EC50, is calculated for each compound.
The inhibitory efficacy of the compounds of the invention in delaying the proliferation of L. donovani in mouse peritoneal macrophages is provided in Table I, infra.

[2] = system: Leishmania donovani axenic amastigote parasites; assay: Leishmania donovani axenic amastigote proliferation assay; format: cell-based
Experimental: Leishmania Donovani Axenic Amastigote Proliferation Assay
Leishmania donovani axenic amastigote parasites are grown at 37° C., 5% CO2 in media made of RPMI 1640, 4 mM L-glutamine, 20% heat inactivated FBS, 100 units/ml of penicillin and 100 μg/ml of streptomycin, 23 μM Folic Acid, 100 μM Adenosine, 22 mM D-glucose, 25 mM MES. The pH of media is adjusted to 5.5 at 37° C. using HCl. 20 μL of media is first dispensed into 384 well plates and 100 nL of the compounds of invention in DMSO are added to the plate wells. At the same time control compounds and DMSO are added to plates to serve as the positive and negative controls, respectively. 40 μL of parasite culture (9600 parasites) are then added to the plate wells. The plates are then placed into incubators. After 2 day incubation, 20 μL of Cell TiterGlo (Promega) is added to the plate wells. The luminescence signal of each well is measured using the Envision reader (Perkin Elmer). The percentage inhibition of 50%, EC50, is calculated for each of the compounds.

[3] = read-out: L. donavani Macrophage EC50
[4] = axenic amastigotes in vitro, read-out: L. donovani amastigotes EC50
[5] = read-out: L. donavani Macrophage EC50 (μM)
[6] = 48 h, L. donovani axenic amastigotes, 2 day incubation, Cell TiterGlo luminescence, read-out: EC50

SMILES	EC50 [1, 3] [µM]	EC50 [2, 4] [µM]	EC50 [1, 5] [µM]	EC50 [2, 6] [µM]
Cc1cnc2nc(-c3cc(NC(=O)c4ccc(OC(F)(F)F)cc4)ccc3Cl)[nH]c2c1 [Compound 210]	> 37.7	> 22		
COCn1c(-c2cc(NC(=O)N3CCCC3)ccc2Cl)nc2ncc(Br)cc21 [Example 386]	4.3	4.3		
CCCc1cnc2nc(-c3cc(NC(=O)c4ccco4)ccc3Cl)[nH]c2c1 [Example 75, N-(4-chloro-3-{6-propyl-1H-imidazo[4,5-b]pyridin-2-yl}phenyl)furan-2-carboxamide]	25.6	9.3		
O=C(Nc1ccc(Cl)c(-c2nc3ncc(-c4ccc(OCC5CCOCC5)cc4)cc3[nH]2)c1)c1ccco1 [Compound 26]	2.17	0.68		
O=C(Nc1ccc(C(F)(F)F)cc1)Nc1ccc(F)c(-c2nc3ncc(-c4ccc(NCCN5CCOCC5)nc4)cc3o2)c1 [Compound 391]	> 12.3	> 25		
Cc1cnc2nc(-c3cc(NC(=O)N4CC[C@@H](F)C4)ccc3Cl)[nH]c2c1 [Compound 234]	9.7	2.03		
O=C(Nc1ccc(Cl)c(-c2nc3ncc(-c4ccc(CCN5CCOCC5)cc4)cc3[nH]2)c1)c1ccco1 [Example 6, N-[4-chloro-3-(6-{4-[2-(morpholin-4-yl)ethyl]phenyl}-1H-imidazo[4,5-b]pyridin-2-yl)phenyl]furan-2-carboxamide]	0.65	1.96		
CC(=O)Nc1ccccc1-c1cnc2nc(-c3cc(NC(=O)c4ccco4)ccc3Cl)[nH]c2c1 [Compound 8]	1.72	0.75		
O=C(Nc1ccc(Cl)c(-c2nc3ncc(-c4ccncc4)cc3[nH]2)c1)c1ccco1 [Compound 10]	1.12	0.89		
CC(C)(C)c1nnc(C(=O)Nc2ccc(F)c(-c3nc4ncc(Br)cc4o3)c2)o1 [Compound 407]	> 4.2	> 25		
Cc1cnc2nc(-c3cc(NC(=O)c4ccco4)ccc3Cl)[nH]c2c1 [Example 1, N-(4-chloro-3-{6-methyl-1H-imidazo[4,5-b]pyridin-2-yl}phenyl)furan-2-carboxamide]	9	2.2		
COC(=O)Nc1ccc(-c2cnc3nc(-c4cc(NC(=O)c5ccco5)ccc4F)oc3c2)cc1 [Compound 414]		0.2	1.17	
CC(C)OC(=O)Nc1ccc(Cl)c(-c2nc3ncc(-c4ccccc4)cc3[nH]2)c1 [Example 333, Propan-2-yl N-(4-chloro-3-{6-phenyl-1H-imidazo[4,5-b]pyridin-2-yl}phenyl)carbamate]	0.048	0.66		
CC(C)OC(=O)Nc1ccc(Cl)c(-c2nc3ncc(-c4ccccc4NC(=O)OC(C)C)cc3[nH]2)c1 [Compound 335]	1.09	0.6		
O=C(Nc1ccc(Cl)c(-c2nc3ncc(-c4ccc(CN5CCOCC5)cc4)cc3[nH]2)c1)c1ccco1 [Compound 16]	1.63	2.07		
Cc1cnc2nc(-c3cc(NC(=O)c4ccns4)ccc3Cl)[nH]c2c1 [Compound 91]	5.6	3.2		
O=C(Nc1ccc(Cl)c(-c2nc3ncc(-c4ccc(-n5cccn5)cc4)cc3[nH]2)c1)c1ccco1 [Compound 56]	16	3.2		
O=C(Nc1ccc(Cl)c(-c2nc3ncc(-c4ccc(OC(F)(F)F)cc4)cc3[nH]2)c1)c1ccco1 [Compound 25]	9.5	5.6		
CC(=O)Nc1ccc(-c2cnc3nc(-c4cc(NC(=O)Nc5ccc(C(F)(F)F)cc5)ccc4F)oc3c2)cc1 [Compound 401]	3.12	4.7		

SMILES	EC50 [1, 3] [µM]	EC50 [2, 4] [µM]	EC50 [1, 5] [µM]	EC50 [2, 6] [µM]
Cc1cnc2nc(-c3cc(NC(=O)c4ccco4)ccc3Cl)oc2c1 [Example 418, N-(4-chloro-3-{6-methyl-[1,3]oxazolo[4,5-b]pyridin-2-yl}phenyl)-furan-2-carboxamide]		1.51	8.4	
Cc1c[nH]nc1-c1cnc2nc(-c3cc(NC(=O)c4ccco4)ccc3Cl)[nH]c2c1 [Compound 73]	8.2	0.82		
CC(C)c1cnc2nc(-c3cc(NC(=O)c4ccco4)ccc3Cl)[nH]c2c1 [Compound 77]	35	6.7		
CCc1nnc(C(=O)Nc2ccc(F)c(-c3nc4ncc(Br)cc4o3)c2)o1 [Example 404, N-(3-{6-bromo-[1,3]oxazolo[4,5-b]pyridin-2-yl}-4-fluorophenyl)-5-ethyl-1,3,4-oxadiazole-2-carboxamide]	> 50	> 25		
CC(C)C(=O)Nc1ccc(-c2cnc3nc(-c4cc(NC(=O)c5ccco5)ccc4Cl)[nH]c3c2)cc1 [Compound 53]	0.154	0.112		
O=C(Nc1ccc(Cl)c(-c2nc3ncc(-c4ccsc4)cc3[nH]2)c1)N1CCCC1 [Compound 300]	0.289	0.143		
CC(C)CC(=O)Nc1ccc(-c2cnc3nc(-c4cc(NC(=O)c5ccco5)ccc4Cl)[nH]c3c2)cc1 [Compound 13, N-(4-chloro-3-{6-[4-(3-methylbutanamido)phenyl]-1H-imidazo[4,5-b]pyridin-2-yl}phenyl)furan-2-carboxamide]	0.115	0.083		~0.08
Cc1cncc(C(=O)Nc2ccc(Cl)c(-c3nc4ncc(C)cc4[nH]3)c2)c1 [Compound 102]	11.7	16.1		
Cc1cnc2nc(-c3cc(NC(=O)[C@@H]4CCCN4)ccc3F)[nH]c2c1 [Compound 273]	> 50	> 25		
Cc1ccc(C(=O)Nc2ccc(F)c(-c3nc4ncc(-c5ccsc5)cc4[nH]3)c2)o1 [Example 381, N-{4-fluoro-3-[6-(thiophen-3-yl)-1H-imidazo[4,5-b]pyridin-2-yl]phenyl}-5-methylfuran-2-carboxamide]	1.6	2.5		
CNc1ccc(-c2cnc3nc(-c4cc(NC(=O)N5CCCC5)ccc4Cl)[nH]c3c2)cc1 [Compound 292, N-(4-chloro-3-{6-[4-(methylamino)phenyl]-1H-imidazo[4,5-b]pyridin-2-yl}phenyl)pyrrolidine-1-carboxamide]	0.17	0.08		~0.08
COC(=O)Nc1ccc(-c2cnc3nc(-c4cc(NC(=O)N5CCCC5)ccc4Cl)[nH]c3c2)cc1 [Compound 296]	0.126	0.034		
Cc1cnc2nc(-c3cc(NC(=O)c4ccc(CN(C)C)o4)ccc3Cl)[nH]c2c1 [Compound 94]	4.9	> 25		
O=C(Nc1ccc(Cl)c(-c2nc3ncncc3[nH]2)c1)c1ccco1 [Compound 4]	25.5	4.2		
Nc1ncc(-c2cnc3nc(-c4cc(NC(=O)c5ccco5)ccc4Cl)[nH]c3c2)cn1 [Compound 17]	1.57	0.48		
O=C(Nc1ccc(Cl)c(-c2nc3ncc(-c4ccc(OCCN5CCOCC5)cc4)cc3[nH]2)c1)N1CCCC1 [Compound 299]	0.208	0.73		
O=C(Nc1ccc(C(F)(F)F)cc1)Nc1ccc(F)c(-c2nc3ncc(-c4ccc(CCN5CCOCC5)cc4)cc3o2)c1 [Example 389, 3-[4-Fluoro-3-(6-{4-[2-(morpholin-4-yl)ethyl]phenyl}-[3]oxazolo[4,5-b]pyridin-2-yl)phenyl]-1-[4-(trifluoromethyl)phenyl]urea]	11.4	11.6		
O=C(Nc1ccc(F)c(-c2nc3ncc(Cl)cc3[nH]2)c1)c1ccco1 [Example 357, N-(3-{6-chloro-1H-imidazo[4,5-b]pyridin-2-yl}-4-fluorophenyl)furan-2-carboxamide]	2.51	0.6		
